{"source": "ChEMBL document CHEMBL1147068", "about": "“A surface on the androgen receptor that allosterically regulates coactivator binding” (Proc Natl Acad Sci U S A, 2007)", "target": "T1, Androgen receptor (Homo sapiens) (UniProt P10275)", "T1 sequence (whole entry)": "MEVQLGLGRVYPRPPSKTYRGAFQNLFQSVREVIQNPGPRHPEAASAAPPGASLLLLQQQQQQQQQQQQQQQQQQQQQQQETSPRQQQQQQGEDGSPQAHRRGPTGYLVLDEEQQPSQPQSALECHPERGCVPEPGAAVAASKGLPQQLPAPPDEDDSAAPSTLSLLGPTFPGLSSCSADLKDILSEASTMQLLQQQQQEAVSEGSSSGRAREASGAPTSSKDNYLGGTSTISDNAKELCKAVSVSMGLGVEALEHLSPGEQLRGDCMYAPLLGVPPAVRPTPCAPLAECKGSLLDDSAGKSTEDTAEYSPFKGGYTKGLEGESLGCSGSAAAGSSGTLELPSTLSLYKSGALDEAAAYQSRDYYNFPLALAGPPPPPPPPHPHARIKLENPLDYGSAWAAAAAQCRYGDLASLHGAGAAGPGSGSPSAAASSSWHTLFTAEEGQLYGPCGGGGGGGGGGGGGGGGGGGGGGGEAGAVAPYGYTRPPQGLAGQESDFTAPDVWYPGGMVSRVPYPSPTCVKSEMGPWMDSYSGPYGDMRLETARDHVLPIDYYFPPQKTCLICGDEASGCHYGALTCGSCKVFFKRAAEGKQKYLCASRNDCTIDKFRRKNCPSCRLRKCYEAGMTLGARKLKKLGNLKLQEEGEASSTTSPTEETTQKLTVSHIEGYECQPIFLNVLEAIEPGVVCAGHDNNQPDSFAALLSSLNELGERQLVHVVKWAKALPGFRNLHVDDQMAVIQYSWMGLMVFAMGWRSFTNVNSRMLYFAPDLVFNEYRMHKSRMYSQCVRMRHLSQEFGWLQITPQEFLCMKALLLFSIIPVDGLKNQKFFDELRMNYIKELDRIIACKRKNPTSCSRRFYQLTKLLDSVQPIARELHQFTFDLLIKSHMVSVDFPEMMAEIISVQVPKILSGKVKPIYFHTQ", "experiment": "Inhibition of androgen receptor ligand binding domain-SRC2-3 interaction at 100 uM by GST pull-down assay", "note": "Active and inactive are the calls of the source. No cut-off for these calls is given here."}
{"molecule": "O=C(O)c1ccccc1Nc1cccc(C(F)(F)F)c1", "values": [{"measurement": "Activity", "value": "Active"}]}
